One may read the IC50 as the concentration that inhibits the measured activity by half. The low end stands for inhibition by little substance, the high end for a need for much substance.

Data on 5 molecules can be found in patent US12037346B2, “Amino-substituted heteroaryls for treating cancers with EGFR mutations” (Nuvalent, Inc., priority 2021, dated 2024).

Assay [1] has as its system NCI-H1781 cells (HER2-A775_G776insV-G776C). Kind of assay: Cell proliferation assay (CellTiter-Glo), NCI-H1781. The format is cell-based. The following applies: first inflexion of biphasic curve.
In assay [2] the target is T1, wild-type EGFR (A431 cells) (Homo sapiens, UniProt P00533).
T1 construct: A431 bears amplification of the wild-type EGFR gene; endogenous in cells; host or cells: A431
T1 sequence (P00533 25-1210): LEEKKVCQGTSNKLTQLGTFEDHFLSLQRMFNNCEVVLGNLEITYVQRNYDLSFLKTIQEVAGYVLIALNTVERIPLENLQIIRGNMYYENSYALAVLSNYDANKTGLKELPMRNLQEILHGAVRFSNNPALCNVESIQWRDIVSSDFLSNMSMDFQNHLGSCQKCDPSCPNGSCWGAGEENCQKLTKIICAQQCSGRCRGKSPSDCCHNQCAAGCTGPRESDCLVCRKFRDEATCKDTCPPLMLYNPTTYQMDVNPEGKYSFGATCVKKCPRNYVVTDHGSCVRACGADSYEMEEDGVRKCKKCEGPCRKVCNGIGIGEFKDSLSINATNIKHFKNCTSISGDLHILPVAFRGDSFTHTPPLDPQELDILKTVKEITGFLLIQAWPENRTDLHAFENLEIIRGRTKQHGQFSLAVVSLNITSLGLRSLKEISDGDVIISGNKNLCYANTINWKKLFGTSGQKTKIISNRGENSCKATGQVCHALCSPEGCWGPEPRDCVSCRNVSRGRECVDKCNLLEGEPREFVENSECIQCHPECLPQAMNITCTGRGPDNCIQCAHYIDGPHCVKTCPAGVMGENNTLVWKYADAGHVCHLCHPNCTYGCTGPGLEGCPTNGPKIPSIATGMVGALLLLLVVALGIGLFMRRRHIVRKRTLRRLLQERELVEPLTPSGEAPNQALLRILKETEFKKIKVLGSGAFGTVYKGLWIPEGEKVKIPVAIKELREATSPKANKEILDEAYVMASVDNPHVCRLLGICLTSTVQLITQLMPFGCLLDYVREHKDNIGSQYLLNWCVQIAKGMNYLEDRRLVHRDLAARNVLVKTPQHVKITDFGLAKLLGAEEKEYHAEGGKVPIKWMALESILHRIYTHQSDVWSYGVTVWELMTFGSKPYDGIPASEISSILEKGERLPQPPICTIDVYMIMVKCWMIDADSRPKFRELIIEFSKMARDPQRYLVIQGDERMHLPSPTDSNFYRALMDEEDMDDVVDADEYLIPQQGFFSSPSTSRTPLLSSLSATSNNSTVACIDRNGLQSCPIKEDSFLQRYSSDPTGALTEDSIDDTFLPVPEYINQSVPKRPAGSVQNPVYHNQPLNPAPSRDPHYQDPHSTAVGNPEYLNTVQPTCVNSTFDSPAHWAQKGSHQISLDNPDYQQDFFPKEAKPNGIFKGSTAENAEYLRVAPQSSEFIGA
The assay can be described thus: Cellular phosphorylation assay, pEGFR (phospho-EGFR Tyr1068 AlphaLISA) in A431. The format is cell-based. As to conditions: compound incubated for 5 hours, EGF (30 ng/mL) for 15 minutes. The gist of the method:
(§1)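 Cells (12,500/well) plated 1 day, then exposed to 3-fold compound dilutions for 5 h; for pEGFR only, A431 stimulated with EGF 30 ng/mL for 15 min. Lysates read by AlphaLISA for pHER2 Tyr1221/1222, pEGFR Tyr1068 or pERK Thr202/Tyr204; IC50 from percent inhibition by four-parameter logistic fit.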
(Alpha assays give light when donor and acceptor beads are brought close together.)

The target of assay [3] is Ba/F3 HER2-YVMA cells (HER2-A775_G776insYVMA) (Homo sapiens, UniProt P04626, DUP772-775, cells depend on it). The assay can be described thus: Cell proliferation assay (CellTiter-Glo), Ba/F3 HER2-YVMA. The format is cell-based. As to conditions: read-out: Ba/F3 HER2-YVMA cell proliferation IC50. The gist of the method:
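Ba/F3 cells stably expressing HER2-YVMA (IL-3-independent, puromycin-selected monoclones) seeded 1,000 cells/well, 1 day before 3-fold compound dilutions; incubated 48 h, 72 h, or 48 h then fresh compound and further 72 h. Viability by CellTiter-Glo luminescence; IC50 from percent inhibition by four-parameter logistic fit, first inflexion only where applicable.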

In assay [4] the target is T2, HER2-A775_G776insV-G776C (NCI-H1781 cells) (Homo sapiens, UniProt P04626, G776C/INS775V).
T2 construct: NCI-H1781 is a HER2 exon20 insertion cell line bearing HER2-A775_G776insV-G776C; endogenous in cells; host or cells: NCI-H1781
T2 sequence (P04626 with tags, fused parts or gaps INS775V/G776C): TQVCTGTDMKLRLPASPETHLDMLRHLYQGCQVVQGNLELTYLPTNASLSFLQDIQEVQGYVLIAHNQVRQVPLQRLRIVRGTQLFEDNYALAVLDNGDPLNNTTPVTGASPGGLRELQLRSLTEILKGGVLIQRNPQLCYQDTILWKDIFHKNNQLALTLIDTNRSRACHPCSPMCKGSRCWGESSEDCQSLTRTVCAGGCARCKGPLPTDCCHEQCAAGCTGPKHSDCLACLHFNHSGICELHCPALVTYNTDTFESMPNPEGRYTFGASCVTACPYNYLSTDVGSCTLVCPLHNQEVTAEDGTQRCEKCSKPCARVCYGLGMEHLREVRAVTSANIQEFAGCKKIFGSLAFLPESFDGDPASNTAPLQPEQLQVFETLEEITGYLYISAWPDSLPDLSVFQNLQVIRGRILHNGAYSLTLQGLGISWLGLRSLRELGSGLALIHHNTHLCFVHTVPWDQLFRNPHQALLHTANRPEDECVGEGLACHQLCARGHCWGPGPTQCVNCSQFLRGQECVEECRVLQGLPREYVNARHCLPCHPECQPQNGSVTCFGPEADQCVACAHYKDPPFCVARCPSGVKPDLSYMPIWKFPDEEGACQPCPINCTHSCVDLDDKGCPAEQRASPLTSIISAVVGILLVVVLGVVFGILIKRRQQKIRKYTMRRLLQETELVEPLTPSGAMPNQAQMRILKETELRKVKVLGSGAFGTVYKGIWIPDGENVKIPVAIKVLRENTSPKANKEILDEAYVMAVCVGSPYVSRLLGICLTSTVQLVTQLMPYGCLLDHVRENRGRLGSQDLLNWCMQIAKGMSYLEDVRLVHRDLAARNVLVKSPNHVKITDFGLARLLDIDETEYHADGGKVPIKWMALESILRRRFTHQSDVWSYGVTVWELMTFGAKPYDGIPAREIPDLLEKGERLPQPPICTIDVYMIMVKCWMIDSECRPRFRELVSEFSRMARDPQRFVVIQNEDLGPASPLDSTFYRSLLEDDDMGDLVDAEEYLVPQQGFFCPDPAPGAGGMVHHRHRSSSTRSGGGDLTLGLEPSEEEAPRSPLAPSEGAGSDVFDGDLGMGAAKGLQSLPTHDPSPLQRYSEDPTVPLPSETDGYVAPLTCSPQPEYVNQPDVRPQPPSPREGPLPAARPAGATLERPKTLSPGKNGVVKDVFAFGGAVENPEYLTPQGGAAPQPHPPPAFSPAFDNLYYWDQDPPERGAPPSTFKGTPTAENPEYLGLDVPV
The assay can be described thus: Cellular phosphorylation assay, pHER2 (phospho-ErbB2 Tyr1221/1222 AlphaLISA) in NCI-H1781. The format is cell-based. The following applies: compound incubated for 5 hours. As to the method:
Besides Ba/F3s, two commercially available cell lines were also used. NCI-H1781 is a HER2 exon20 insertion cell line bearing HER2-A775_G776insV-G776C. A431 bears amplification of the wild-type EGFR gene.
Ba/F3 cells were plated at 50,000 cells/well (40 μL), or NCI-H1781 cells or A431 cells were plated at 12,500 cells/well (40 μL), in a 384-well plate for 1 day. Test compounds (40 nL) were then added in a 3-fold dilution series using the TECAN EV0200 liquid handler and incubated for 5 hours. Only for pEGFR analysis in A431, the cells were briefly stimulated with EGF (30 ng/mL) for 15 minutes. Media were removed using Apricot Designs. Phosphoproteins were analyzed using the phospho-EGFR Tyr1068 AlphaLISA kit (“pEGFR”; PerkinElmer #ALSU-PEGFR-B10K;) phospho-ERK Thr202/Tyr204 AlphaLISA kit (“pERK”; PerkinElmer #ALSU-PERK-A10K) or the phospho-ErbB2 Tyr1221/1222 AlphaLISA kit (“pHER2”; PerkinElmer #ALSU-PEB2-A10K;) according to the manufacturer's instructions. Briefly, cells were lysed with lysis buffer (10 μL) containing protease-inhibitor and phosphatase-inhibitor cocktails. The lysates were transferred into a new optical plate, incubated with the acceptor mix (5 μL) for 1.5-2 hours at room temperature in darkness, and then mixed with the donor mix (5 μL) overnight in darkness. Fluorescence was measured on a plate reader using the appropriate AlphaLISA settings. Half-maximal inhibitory concentration (IC50) was calculated from percent inhibition and inhibitor concentration using four-parameter logistic regression.
HER2 is phosphorylated when activated. Therefore, phospho-HER2 indicates HER2 activity in the cells.

Assay [5] relates to A431 cells (amplification of the wild-type EGFR gene), phospho-ERK Thr202/Tyr204. The assay can be described thus: Cellular phosphorylation assay, pERK (phospho-ERK Thr202/Tyr204 AlphaLISA) in A431. The format is cell-based. As to conditions: Homo sapiens, A-431, compound incubated for 5 hours. The gist of the method:
as §1

The next assay deals with HER2 (Homo sapiens, UniProt P04626). As to conditions: cited from earlier work.
HER2, sequence (P04626 23-1255): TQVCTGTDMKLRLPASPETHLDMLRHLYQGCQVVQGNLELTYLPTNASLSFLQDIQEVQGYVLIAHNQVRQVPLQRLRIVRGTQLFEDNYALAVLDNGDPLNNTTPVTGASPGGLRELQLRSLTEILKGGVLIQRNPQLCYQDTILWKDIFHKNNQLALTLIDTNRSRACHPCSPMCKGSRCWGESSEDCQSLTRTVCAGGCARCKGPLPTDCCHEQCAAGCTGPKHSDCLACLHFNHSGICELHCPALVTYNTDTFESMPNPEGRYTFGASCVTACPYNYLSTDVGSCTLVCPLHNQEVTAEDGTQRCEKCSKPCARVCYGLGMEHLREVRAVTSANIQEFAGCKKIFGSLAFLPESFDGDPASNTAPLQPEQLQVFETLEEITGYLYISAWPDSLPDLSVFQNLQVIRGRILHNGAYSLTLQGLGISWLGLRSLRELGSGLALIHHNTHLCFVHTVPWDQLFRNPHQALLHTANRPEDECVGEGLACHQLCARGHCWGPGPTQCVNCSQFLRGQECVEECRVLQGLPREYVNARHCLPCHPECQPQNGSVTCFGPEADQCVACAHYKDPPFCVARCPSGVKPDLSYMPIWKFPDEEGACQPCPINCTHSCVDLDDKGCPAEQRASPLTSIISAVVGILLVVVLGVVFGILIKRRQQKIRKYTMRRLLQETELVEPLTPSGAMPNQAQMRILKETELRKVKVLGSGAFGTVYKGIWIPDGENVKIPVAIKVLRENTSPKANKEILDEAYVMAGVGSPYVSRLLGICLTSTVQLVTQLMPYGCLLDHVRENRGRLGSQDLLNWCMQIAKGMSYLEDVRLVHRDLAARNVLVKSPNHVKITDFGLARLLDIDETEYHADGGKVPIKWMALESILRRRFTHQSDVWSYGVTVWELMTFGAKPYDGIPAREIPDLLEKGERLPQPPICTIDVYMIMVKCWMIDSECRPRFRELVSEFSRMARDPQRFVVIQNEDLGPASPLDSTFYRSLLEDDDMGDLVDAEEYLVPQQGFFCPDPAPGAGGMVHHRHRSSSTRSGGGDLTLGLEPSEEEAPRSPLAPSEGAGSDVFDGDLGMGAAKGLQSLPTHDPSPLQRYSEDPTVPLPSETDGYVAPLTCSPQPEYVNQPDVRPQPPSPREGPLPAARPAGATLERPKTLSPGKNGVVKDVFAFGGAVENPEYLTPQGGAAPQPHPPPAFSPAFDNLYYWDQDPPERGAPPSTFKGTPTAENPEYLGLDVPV

Ba/F3 HER2-YVMA cells (HER2-A775_G776insYVMA), sequence (P04626 with tags, fused parts or gaps DUP772-775): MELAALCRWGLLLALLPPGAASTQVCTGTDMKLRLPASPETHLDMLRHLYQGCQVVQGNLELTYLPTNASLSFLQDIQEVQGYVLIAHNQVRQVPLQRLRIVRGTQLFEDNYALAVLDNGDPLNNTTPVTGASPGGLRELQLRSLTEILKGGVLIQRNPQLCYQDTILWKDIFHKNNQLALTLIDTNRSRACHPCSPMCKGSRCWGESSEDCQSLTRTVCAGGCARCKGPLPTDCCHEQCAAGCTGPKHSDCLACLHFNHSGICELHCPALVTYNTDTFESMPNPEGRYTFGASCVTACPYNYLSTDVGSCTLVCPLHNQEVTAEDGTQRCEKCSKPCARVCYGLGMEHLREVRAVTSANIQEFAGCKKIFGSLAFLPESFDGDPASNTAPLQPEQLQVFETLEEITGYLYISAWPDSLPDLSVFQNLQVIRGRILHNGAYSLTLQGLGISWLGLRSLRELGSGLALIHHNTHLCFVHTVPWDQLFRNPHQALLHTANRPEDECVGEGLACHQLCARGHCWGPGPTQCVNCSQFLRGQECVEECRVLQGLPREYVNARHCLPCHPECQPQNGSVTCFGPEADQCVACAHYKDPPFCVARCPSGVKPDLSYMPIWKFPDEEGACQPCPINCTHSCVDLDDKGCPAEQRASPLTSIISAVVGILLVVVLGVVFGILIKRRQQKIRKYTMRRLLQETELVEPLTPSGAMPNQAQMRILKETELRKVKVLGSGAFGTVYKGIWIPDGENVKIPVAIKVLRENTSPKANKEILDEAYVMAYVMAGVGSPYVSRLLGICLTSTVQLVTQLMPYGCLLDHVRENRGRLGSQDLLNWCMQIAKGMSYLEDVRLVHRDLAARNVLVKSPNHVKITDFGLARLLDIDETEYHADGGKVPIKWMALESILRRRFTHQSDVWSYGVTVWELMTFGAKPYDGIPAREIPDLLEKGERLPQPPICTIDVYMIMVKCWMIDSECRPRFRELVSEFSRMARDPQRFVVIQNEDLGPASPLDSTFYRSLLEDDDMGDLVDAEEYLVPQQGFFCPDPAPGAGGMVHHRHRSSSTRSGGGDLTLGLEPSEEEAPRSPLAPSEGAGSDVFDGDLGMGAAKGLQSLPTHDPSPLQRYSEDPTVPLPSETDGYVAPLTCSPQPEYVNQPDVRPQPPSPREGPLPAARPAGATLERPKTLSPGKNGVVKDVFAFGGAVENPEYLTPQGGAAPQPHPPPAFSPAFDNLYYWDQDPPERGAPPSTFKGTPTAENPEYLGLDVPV

Turning to `C=CC(=O)N1CCN(c2ncc3ncnc(Nc4ccc(Oc5ccn6ncnc6c5)c(C)c4F)c3n2)C[C@@H]1C` [Example 49], the IC50 in assay [1] is under 100 nM; in assay [2] it was at least 1000 nM; in assay [4] it was under 100 nM; in assay [5], at least 1000 nM. Moreover, the GI50 in assay [3] was under 100 nM.
As to `C=CC(=O)N1CCN(c2ncc3ncnc(Nc4ccc(Oc5ccn6ncnc6c5)c(C)c4F)c3c2F)C[C@H]1C` [Example 52], the IC50 in assay [1] was under 100 nM; in assay [2], at least 1000 nM; in assay [4] it was under 100 nM; in assay [5] it was at least 1000 nM. Further, the GI50 in assay [3] was under 100 nM.
Regarding `C=CC(=O)N1CCN(c2ccc3ncnc(Nc4ccc(Oc5ccn6ncnc6c5)c(C)c4F)c3c2F)C[C@H]1C` [Example 53], the IC50 in assay [1] was under 100 nM; in assay [2] it was at least 1000 nM; in assay [4], under 100 nM; in assay [5], at least 1000 nM. Besides, the GI50 in assay [3] is under 100 nM.
Turning to `C=CC(=O)N1CCC(c2ncc3ncnc(Nc4ccc(Oc5ccn6ncnc6c5)c(C)c4F)c3n2)=C[C@@H]1C` [Example 54], the IC50 in assay [1] is under 100 nM; in assay [2] it was 500 to 1000 nM; in assay [4] it was under 100 nM; in assay [5], 100 to 500 nM. The GI50 in assay [3] is under 100 nM.
Turning to `Cc1cc(Nc2ncnc3ccc(NC4=NC(C)(C)CO4)cc23)ccc1Oc1ccn2ncnc2c1` [Tucatinib], the “median progression free survival” value at HER2 (compared to placebo (5.6 months)) is reported as 7.8 months. Further, the median overall survival on HER2 (compared to placebo (17.4 months)) was 21.9 months. In addition, the objective response rate on HER2 (compared to placebo (23%)) is listed as 41%.
